# Laboratory results published in patent publication US9603922B2, “Modulation of NKT cell activity with antigen-loaded CD1d molecules” (VACCINEX, INC., priority 2007, dated 2017).
# B1: αGalCer/sCD1d: soluble monomeric mouse β2m-CD1d, His-tagged, loaded with αGalCer (protein)
# chain: IQKTPQIQVYSRHPPENGKPNILNCYVTQFHPPHIEIQMLKNGKKIPKVEMSDMSFSKDWSFYILAHTEFTPTETDTYACRVKHASMAEPKTVYWDRDMGGGGSGGSGSGGGSEAQQKNYTFRCLQMSSFANRSWSRTDSVVWLGDLQTHRWSNDSATISFTKPWSQGKLSNQQWEKLQHMFQVYRVSFTRDIQELVKMMSPKEDYPIEIQLSAGCEMYPGNASESFLHVAFQGKYVVRFWGTSWQTVPGAPSWLDLPIKVLNADQGTSATVQMLLNDTCPLFVRGLLEAGKSDLEKQEKPVAWLSSVPSSADGHRQLVCHVSGFYPKPVWVMWMRGDQEQQGTHRGDFLPNADETWYLQATLDVEAGEEAGLACRVKHSSLGGQDIILYWSSGSGGHHHHHH
# Experiments:
# Format in all cases: in vivo, mouse
# B16 melanoma cells = assay: Pretreatment and B16 melanoma lung metastasis; settings: for Lung metastasis / tumor resistance in pretreated mice: 5 i.v. pretreatments every 3 days, then 700,000 B16 cells co-injected with same agent; for Lung metastasis / tumor development in naïve mice: no pretreatment, agent co-injected with B16 cells
# Description: FIG. 4: Sustained iNKT activation in vivo due to repeated injections of αGalCer/sCD1d prevents formation of lung metastases. Mice were treated 5 times with PBS (Control, white), αGalCer (0.4 μg, light grey), or αGalCer/sCD1d (sCD1d, 20 μg, black) and then grafted with 700,000 B16 wild type cells plus co-injection of the respective treatment. 2 naive groups were included that had no pretreatment and got only tumor cell graft+co-injection of αGalCer (striped grey) or αGalCer/sCD1d (sCD1d, dark striped grey) respectively. Lung metastases formation was analysed 2 weeks after graft with the ImageJ k-means clustering program and results are expressed as percent of black metastatic surface over total lung surface. P values for αGalCer/sCD1d pretreated and naive+αGalCer groups compared to control *P<0.04, and compared to αGalCer pretreated group *P<0.02.
# (§1) Quantification of lung metastasis. Metastatic nodule surface area was measured on 2560×1920 pixels photographs of the whole organs, taken on an Zeiss STEMI SV11 dissection microscope (Carl Zeiss, Jena, Germany) equipped with a PROGRES-C10plus Color Camera (Jenoptik, Jena, Germany). Each image was analyzed with the ImageJ program (rsb.info.nih.gov/ij/) using a k-means clustering algorithm (plugin available on ij-plugins.sourceforge.net). Images were segmented into 9 segments cluster tolerance 1×10−4, randomization seed: 48) and the appropriate segments were selected based on the color of the metastasis reaching the surface of the organ. The area of the sum of selected color segments was expressed as percentage of the area occupied by the lungs. Both sides of the lung were analyzed. This method takes into account both the number and the size of the tumor nodules. Since nodules are often heterogenous the percentage of metastatic lung surface area is a more sensitive measure of tumor growth than just counting tumor nodules.
# This is most likely due to the anergic state of iNKT cells induced by free αGalCer. In contrast, in naïve mice, opposite results were obtained. […] The key finding is that multiple prior injections of αGalCer loaded recombinant CD1d molecules but not of free αGalCer confers resistance to tumor development.
# B16 wild type cells = assay: Precoating experiment, lung metastases of B16 wild type cells; settings: cells pre-incubated with agent, injected i.v. into naïve mice
# Description: FIG. 5: Precoating experiment.
# as §1
# This affect may be caused by a transient association of the αGalCer with the tumor cell surface, or by transient uptake of the free αGalCer.
# B16-HER2 melanoma cells = assay: Systemic treatment of B16-HER2 lung metastases; settings: 5 i.v. injections starting 48 hours after tumor graft
# Description: FIG. 6: In vivo anti tumor activity—Systemic Treatment. a Mice were grafted i.v. with 700.000 B16-HER2 cells and i.v. treatment was started 48 hours later. Mice were injected i.v. 5 times every 2 to 3 days with PBS (control), αGalCer (0.4 μg), αGalCer/sCD1d (sCD1d, 25 μg), or αGalCer/CD1d-anti-HER2 fusion (Fusion, 40 μg). Lung metastases were analysed after 3 weeks by the ImageJ k-means clustering program and expressed as percent metastatic surface over total lung surface. […] Mice were injected i.v. with 700,000 B16-HER2 cells and treatment with PBS (Control), αGalCer, or αGalCer/CD1d-anti-HER2 fusion protein (Fusion) was started 6 days after graft. Mice were treated 3× i.v. every 2-3 days and lung metastases were analyzed after 3 weeks as described above.
# Quantification of lung metastasis. Metastatic nodule surface area was measured on 2560×1920 pixels photographs of the whole organs, taken on an Zeiss STEMI SV11 dissection microscope (Carl Zeiss, Jena, Germany) equipped with a PROGRES-C10plus Color Camera (Jenoptik, Jena, Germany). Each image was analyzed with the ImageJ program (rsb.info.nih.gov/ij/) using a k-means clustering algorithm (plugin available on ij-plugins.sourceforge.net). […] The area of the sum of selected color segments was expressed as percentage of the area occupied by the lungs. Both sides of the lung were analyzed. […]
# [1] = system: H-2Kb/OVA specific CD8 T cells; assay: Adjuvant effect on H-2Kb/OVA specific CD8 T cells upon ovalbumin immunization; settings: for Frequency of Kb/OVA specific CTLs in the spleens, of total CD8: after OVA peptide boost, 5 days in vitro culture without further stimulation; for Frequency of specific T cells: after boost and in vitro re-stimulation with same stimuli; for H-2Kb/OVA257-264 tetramer CD8 double positive T cells after priming: priming with 200 μg ovalbumin plus adjuvant
# Description: FIG. 8: αGalCer loaded sCD1d acts as a strong adjuvant for the expansion of antigen-specific T cells upon active immunization. a kinetics of expansion of H-2K^b/OVA specific CTLs. Mice were primed with 200 μg ovalbumin either as such (i.v.) or with MONTANIDE™ adjuvant (3:7 ratio, s.c.) or with 1 μg αGalCer or 20 μg αGalCer/sCD1d (i.v.). Mice were bled every 5-7 days and PBMC were stained with H-2K^b/oVA tetramer+anti-CD8. Results were expressed as tetramer+ and CD8+ […] as a percentage of total CD8+ T cells. Mice were boosted with OVA peptide (20 μg) on day 22 employing the same adjuvants and route of injection as for primary immunization. b Ten days later, mice were sacrificed and splenocytes were cultured another five days either with no stimuli or with the same stimuli and adjuvants as for the in vivo boost. Frequency of OVA specific T cells was measured as in a. c The presence of mature DC in the same cultures as in b was analyzed by surface staining with anti CD11c and anti CD40 antibodies.
# Together with active OVA immunization: An adjuvant effect has previously been attributed to free αGalCer and its potential use in vaccination has been proposed (Silk, J. D., et al. J Clin Invest 114:1800-1811 (2004)). […] In this context, the adjuvant effect on the expansion of antigen-specific T cells in the model of C57 BL/6 mice immunized with ovalbumin was investigated (Hermans, I. F., et al. J Immunol 171:5140-5147 (2003)). […] Furthermore, after boosting these same mice with OVA peptide in the same adjuvants in vivo and then 5 days in vitro culture without further stimulation, the frequency of K^b/OVA specific CTLs in the spleens reached up to 45% of total CD8 in mice that received a boost of OVA peptide with αGalCer/sCD1d, whereas the frequency was 12% in mice boosted with peptide and αGalCer alone (FIG. 8b). A further increase could be obtained by in vitro re-stimulation with the same respective stimuli and the frequency of specific T cells reached close to 70% in both αGalCer and αGalCer/sCD1d-treated mice (FIG. 8b).
Molecule,Lung metastasis / tumor resistance in pretreated mice (B16 melanoma cells),Lung metastasis / tumor development in naïve mice (B16 melanoma cells),Lung metastases of precoated B16 wild type cells (B16 wild type cells),Anti tumor effect in words (B16-HER2 melanoma cells),"Frequency of Kb/OVA specific CTLs in the spleens, of total CD8 [1]",Frequency of specific T cells [1] [%],H-2Kb/OVA257-264 tetramer CD8 double positive T cells after priming [1]
"CCCCCCCCCCCCCCCCCCCCCCCCCC(=O)N[C@@H](CO[C@H]1O[C@H](CO)[C@H](O)[C@H](O)[C@H]1O)[C@H](O)[C@H](O)CCCCCCCCCCCCCC [αGalCer, α-galactosylceramide, reference compound]",not able to block lung metastasis,completely blocked tumor development,completely inhibited tumor development,no significant anti tumor effect,12%,~70,no H-2K^b/OVA257-264 tetramer CD8 double positive T cells could be detected
B1,rendered them resistant to B16 melanoma cells,had no effect,not able to block tumor growth,anti tumor activity which was very variable from mouse to mouse,up to 45%,~70,could be detected
